Results on 28 compounds are retold here after PubChem BioAssay (NCI).

What all share (assay): NCI anticancer screen, dose series, 48 h
Assay [1] concerns A549 NSCLC.
Assay [2] deals with MOLT-4 leukemia.
Assay [3] has as its system NCI-H23 lung.
The subject of assay [4] is RPMI-8226 leukemia.
Assay [5] has as its system RXF 393 renal.
Assay [6] deals with SF-268 CNS.
Assay [7] concerns SF-539 CNS.
In assay [8] the test system is KM12 colon.
Assay [9] deals with SNB-75 CNS.

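Five compound concentrations were applied to cells in 96-well plates for 48 hours; endpoints were derived by simple linear interpolation of the resulting dose-response curve. GI50 marks 50% less growth. Definition used: TGI = concentration required for complete inhibition of growth.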

Turning to `Cn1nc(-c2ccccc2)c(C(=O)/C=C/c2ccc(Cl)cc2)c(N2CCCC2)c1=O`, the TGI in [1] came out at 49.4 µM; in assay [2] it was 6.66 µM; in assay [3], 10.6 µM; in assay [4], 7.84 µM; in assay [5] it was 8.52 µM; in [6] it was 20.2 µM. This compound also displayed a TGI in assay [7] of 13.2 µM.
`COc1ccc2c(c1)c1c3n2CCNN=C3CCC1`: the TGI in assay [1], in [8], in assay [2], in [3], in [4] and in [6] was more than 100 µM in each case. The TGI in assay [7] and in assay [9] was more than 100 µM throughout.
Regarding `C/C(=N\NS(=O)(=O)c1ccc([N+](=O)[O-])cc1)c1ccc[n+]([O-])n1`, the TGI is more than 100 µM in [1]; 33.8 µM in [8]; 11.5 µM in assay [2]; 3.6 µM in [3]; 7.17 µM in assay [4]; 2.67 µM in assay [5]. For the same compound, the TGI in assay [6] was 7.65 µM; in assay [7], 4.94 µM; in [9], 5.36 µM.
Regarding `[CH3][Sn]1([CH3])[O]CC(COc2cc(Cl)c(Cl)cc2Cl)[O]1` (stereo not given), the GI50 in assay [1] is 83.6 µM; in [8], 45.8 µM; in assay [2], more than 100 µM; in assay [3], more than 100 µM; in assay [4] it was more than 100 µM; in [5] it was 29.1 µM. For the same compound, the GI50 in assay [6] was 74.9 µM; in assay [7], 24.7 µM; in assay [9] it was 23.1 µM. Besides, the TGI in assay [1], in assay [8], in assay [2], in [3], in assay [4] and in [5] was more than 100 µM throughout. The results for the TGI in assay [6], in assay [7] and in assay [9] were more than 100 µM, more than 100 µM and 68.8 µM, respectively.
With `CCCCNC1=C(C(=O)OCC)/C(=N/NC(=O)c2ccccc2O)CO1`, the TGI in assay [1], in assay [8], in assay [2], in assay [3], in assay [4] and in assay [5] was more than 100 µM throughout. In addition, the TGI in assay [6] and in assay [7] was more than 100 µM each time.
As for `COc1ccc(C)cc1C1CCC(=O)O1` (stereo not given), the TGI in [1], in assay [8], in assay [2], in assay [3], in assay [4] and in [5] was more than 100 µM each time. Also, the TGI in assay [7] and in assay [9] was more than 100 µM each time.
Take `CC(C)(C)Sc1nnc(SC(C)(C)C)c2c(=O)[nH]nc(SC(C)(C)C)c12`: the TGI in assay [1] was determined as 17.9 µM; in assay [8], 25.6 µM; in assay [2] it was 15.7 µM; in assay [3], 22.9 µM; in [4], 12.2 µM; in assay [5] it was 14.2 µM. Besides, the values for the TGI in assay [6], in assay [7] and in assay [9] were 21.2 µM, 22.6 µM and 24.3 µM, respectively.
As for `O=C1C=Cc2ncccc2C1=O`, the TGI in assay [1] was more than 67.6 µM; in [8] it was more than 58.5 µM; in assay [3] it was 39.6 µM; in assay [4] it was 62.4 µM; in assay [5], 35.9 µM; in assay [6], more than 59.2 µM. In addition, the TGI was determined as 40.5 µM in [7] and 49.8 µM in assay [9].
On to `C#CCOCn1cnc2ncnc(N)c21`, for which the TGI in [1], in [8], in [2], in assay [3], in assay [4] and in assay [5] was more than 100 µM each time. Also, the TGI in [6], in assay [7] and in assay [9] was more than 100 µM throughout.
Regarding `CC(=O)c1c2c(cc3c1CC1(C3)Cc3cc4c(c(C(=O)O)c3C1)CCC4)CCC2` (stereo not given), the TGI in assay [1] was more than 100 µM; in [8], more than 100 µM; in assay [2] it was 71.3 µM; in [3], 66.8 µM; in assay [5], more than 100 µM; in [6] it was more than 100 µM. The values for the TGI in [7] and in assay [9] were 59.6 µM and more than 100 µM, respectively.
Take `COc1cc(C(C#N)NNc2nc(C)cc(=O)[nH]2)cc(OC)c1OC` (stereo not given): the TGI in assay [1], in assay [8], in assay [3], in [4], in assay [5] and in assay [6] was more than 100 µM throughout. Further, the TGI in assay [7] and in assay [9] was more than 100 µM throughout.
Turning to `O=S1(=O)c2ccccc2N=C(c2ccccc2Cl)CC1c1ccc(F)cc1` (stereo not given), the TGI in assay [1] came to 47.4 µM; in [8], 31.8 µM; in assay [2], 51.7 µM; in [3] it was 32.2 µM; in assay [4], 14.4 µM; in assay [5], 20.1 µM. For the same compound, the TGI in assay [6] was determined as 47.4 µM; in assay [7] it was 35.7 µM; in assay [9] it was 47.8 µM.
In the case of `CC(C)N1C(C)[C@@H](c2ccccc2)O[P@]1(=O)CC1=CCCCC1` (stereo not given in full), the TGI in assay [1], in assay [8], in assay [2], in assay [3], in assay [4] and in assay [5] was more than 100 µM each time. Besides, the TGI in assay [6], in assay [7] and in assay [9] was more than 100 µM throughout.
Take `Cc1ccc2nc(NC(=O)C(=O)CC(=O)c3cccc4ccccc34)sc2c1`: the TGI in [1], in assay [8], in assay [2], in assay [3], in [4] and in assay [6] was more than 100 µM throughout. Further, the TGI is 61.6 µM in assay [7] and 36.5 µM in [9].
`N#CC(C(=O)CCCC(=O)Nc1ccc(Cl)cc1Cl)c1ccc(Cl)cc1` (stereo not given): the TGI in assay [1], in [8], in [2], in assay [3], in assay [4] and in [6] was more than 100 µM in each case. The TGI in [7] and in assay [9] was more than 100 µM each time.
For `CC(C)[Si](OCC1CC(C#N)OC(C)(C)O1)(C(C)C)C(C)C` (stereo not given), the TGI in assay [1] was more than 100 µM; in assay [8], 35.9 µM; in assay [2] it was 41.1 µM; in assay [3], 65.8 µM; in assay [4], 33.8 µM; in [5], 31.9 µM. Also, the TGI is 82.7 µM in assay [6], 79 µM in [7] and more than 100 µM in assay [9].
For `Cc1noc(/N=C2\C=C(Nc3onc(C)c3C)C(=O)c3ccccc32)c1C`, the TGI in assay [1], in assay [8], in assay [2], in [3], in assay [4] and in [5] was more than 100 µM each time. The TGI in assay [6], in assay [7] and in assay [9] was more than 100 µM in each case.
With `O=CCCCC(Sc1ccccc1)Sc1ccccc1`, the TGI is more than 100 µM in assay [1]; more than 100 µM in [8]; 38.9 µM in assay [2]; 27.3 µM in assay [3]; 48.6 µM in assay [4]; 43.3 µM in [6]. Also, the TGI in assay [9] amounted to 35.9 µM.
For the compound `COc1ccc(NC(=O)C2C(=O)N(c3ccc(OC)cc3)C(=O)/C2=N\NC(N)=O)cc1` (stereo not given), the TGI in assay [8] is 43.2 µM; in assay [3] it was more than 100 µM; in assay [4] it was more than 100 µM; in assay [5], 56.7 µM; in assay [6], 63.9 µM; in assay [7] it was 30.8 µM. In addition, in assay [9], the TGI amounted to 49.3 µM.
For `O=C(Nc1nc2ccccc2s1)c1cc(-c2ccc(F)cc2)n2nc(-c3ccccc3)cc2n1`, the GI50 in assay [2] is 21 µM; in [3] it was 2.81 µM; in assay [4], 5.59 µM; in assay [5], 2.53 µM; in assay [6], 3.89 µM; in assay [9] it was 1.75 µM. For the same compound, the TGI was 71.7 µM in [2]; more than 100 µM in assay [3]; more than 100 µM in [4]; 6.43 µM in assay [5]; more than 100 µM in [6]; 5.82 µM in [9].
For `CC(=O)NC(CCCN(Cc1ccccc1)C(=O)N(C)N=O)C(=O)NCc1ccccc1` (stereo not given), the TGI in assay [1], in assay [8], in assay [2], in [3], in assay [4] and in assay [5] was more than 100 µM each time. Besides, the TGI in assay [6] is more than 100 µM; in [7] it was more than 100 µM; in assay [9] it was 91 µM.
Turning to `CCOC(=O)CC(NC(=O)c1ccc(N=NN(C)C)cc1)C(=O)OCC` (stereo not given), the TGI in assay [1], in assay [8], in assay [2], in [3], in assay [4] and in [6] was more than 100 µM each time. For the same compound, the TGI in assay [7] and in assay [9] was more than 100 µM each time.
Turning to `c1ccc(-c2nnc3nn4c(-c5ccccc5)cnnc4c3c2-c2ccccc2)cc1`, the TGI is more than 100 µM in assay [1]; more than 100 µM in [8]; more than 100 µM in [2]; more than 100 µM in [3]; more than 100 µM in assay [4]; 46.3 µM in [5]. For the same compound, the TGI stood at 99.5 µM in assay [7] and 83.9 µM in [9].
In the case of `O=C(/C=C/C1C(=O)NC(=O)NC1=O)CC(=O)C(=O)Nc1cc(Cl)c(Cl)cc1Cl`, the TGI in assay [1], in assay [8], in [2], in [3], in [4] and in assay [5] was more than 100 µM each time. Also, the TGI in assay [6], in assay [7] and in assay [9] was more than 100 µM each time.
Take `CC(=O)[C-](C(C)=O)c1ccccc1.CC(=O)[C-](C(C)=O)c1ccccc1.CC(=O)[C-](C(C)=O)c1ccccc1.[Cl-].[Zr+4]`: the GI50 in assay [1] was more than 100 µM; in assay [8], more than 100 µM; in assay [2], more than 100 µM; in assay [3], more than 100 µM; in [4], more than 100 µM; in [5] it was 28.1 µM. Further, the GI50 in assay [6] was 61.7 µM; in assay [7] it was 86.7 µM; in assay [9], 33 µM. Moreover, the TGI was more than 100 µM in [1]; more than 100 µM in assay [8]; more than 100 µM in assay [2]; more than 100 µM in assay [3]; more than 100 µM in assay [4]; 98.3 µM in assay [5]. Moreover, the TGI in [6] was more than 100 µM; in [7], more than 100 µM; in assay [9] it was 83.9 µM.
Consider `S=c1c2ccccc2c(=S)n2n1CC=CC2`, for which the TGI in [1], in [8], in assay [2], in assay [3], in assay [4] and in [5] was more than 100 µM in each case. Moreover, the TGI in assay [6], in [7] and in assay [9] was more than 100 µM in each case.
On to `CCc1cc(Cc2ccc(C)c(NC(=O)C(=O)C3C(=O)NC(=O)NC3=O)c2CC)cc(C)c1NC(=O)C(=O)C1C(=O)NC(=O)NC1=O`, for which the TGI in assay [1], in [8], in assay [2], in assay [3], in [4] and in assay [5] was more than 100 µM each time. For the same compound, the TGI in assay [6], in [7] and in assay [9] was more than 100 µM in each case.
In the case of `CC1=CC(=O)NP(=O)(C23CC4CC(CC(C4)C2)C3)N1` (stereo not given), the TGI in [8], in [2], in [3], in assay [4], in assay [6] and in [7] was more than 100 µM each time. Besides, in assay [9], the TGI is more than 100 µM.
